PMC7470021, “Functionality study of chalcone-hydroxypyridinone hybrids as tyrosinase inhibitors and influence on anti-tyrosinase activity” (Journal of Enzyme Inhibition and Medicinal Chemistry, 2020)
Where two headings read alike, the source gives them in different places.

Legend:
[1] = target: T1, monophenolase activity of mushroom tyrosinase (Agaricus bisporus, UniProt C7FF04); experiment: Monophenolase inhibition assay (L-tyrosine substrate, dopachrome absorbance at 475 nm); conditions: pH 6.8, read-out: Inhibition (%) on monophenolase activity
Method: L-Tyrosine and L-DOPA were used as reaction substrate for monophenolase and diphenolase assays, respectively. […] Finally, 20 units of enzyme was quickly added to the reaction mixture and incubated at 30 °C for 10 min. […] The assay was carried out in triplicate and DMSO was used as control[17].

mushroom tyrosinase = experiment: Reversibility of inhibitory effect on tyrosinase (L-DOPA substrate); format: biochemical; conditions: inhibitor 0-25 µM, 30 °C, pH 6.8
From the text: Measurement method was substantially the same to that described above, changing the added concentration of the enzyme solution, different concentrations of inhibitor on mushroom tyrosinase L-DOPA as reaction substrate.

[2] = target: T1, monophenolase activity of mushroom tyrosinase; design: method as in PMID 15231412; conditions: at 50 μM, literature value; cited from earlier work
[3] = design: method as in PMID 26239546; conditions: literature value for kojic acid; cited from earlier work
[4] = Copper(II) stability constants determination and pCu2+; format: physicochemical
Method: (§1) An automated titration system used in the study consists of a Metrohm 765 Dosimat autoburette, a Mettler Toledo MP230 pH metre with SENTEK pH electrode (P11), and an HP 8453 UV-visible spectrophotometer with a Hellem quartz flow cuvette being circulated through by a Gilson Mini-plus #3 pump—speed capability (20 ml/min). A potassium chloride electrolyte solution (0.1 M) was used to maintain the ionic strength. The temperature of the test solutions was maintained in a thermostatic jacketed titration vessel at 25 °C (± 0.1 °C) using a Fisherbrand Isotemp water bath. The pH electrodes were calibrated using GLEE[25] with data obtained by titrating a volumetric standard HCl (0.1 M) in KCl (0.1 M) with KOH (0.1 M) under an argon gas atmosphere in the vessel. The solution under investigation was stirred vigorously during the experiment. […] All instruments were interfaced to a computer and controlled by an in-house programme. An automated titration adopted the following strategy: the pH of a solution was increased by 0.1 pH unit by the addition of KOH solution (0.1 M) from the autoburette. The pH readings were judged to be stable if their values varied by less than 0.01 pH unit after a set incubation period. […] The cycle was repeated until the defined end point pH value was achieved. Titrations were carried out in the solution with molar ratio of DMSO: H2O being 0.2: 1 due to the solubility issue of samples and/or the corresponding copper(II) complexes. Under this condition, the pH metre readings are shifted, compared to the aqueous solution. All the titration data were analysed with the HypSpec2014 programme (http://www.hyperquad.co.uk/)[26]^,[27]. The speciation plot and pM values were calculated with the HYSS programme. Based on deferiprone titrations, pCu^2+ at pH 7.6, denoted as pCu^2+7.6, with [ligand]total = 10 µM and [Metal]total = 1 µM, were calculated as close approximations for pCu^2+ at pH 7.4 in the aqueous solution. Analytical grade reagent materials were used in the preparation of all solutions.

[5] = pKa determination by spectrophotometric titration; format: physicochemical; conditions: DMSO/water solution (molar ratio 0.2:1) with 0.1 M KCl, 25 °C
Method: as §1

[6] = 25 °C, 0.1 M KCl, DMSO:H2O molar ratio 0.2:1

T1 sequence (G1K3P4 entry or part of it): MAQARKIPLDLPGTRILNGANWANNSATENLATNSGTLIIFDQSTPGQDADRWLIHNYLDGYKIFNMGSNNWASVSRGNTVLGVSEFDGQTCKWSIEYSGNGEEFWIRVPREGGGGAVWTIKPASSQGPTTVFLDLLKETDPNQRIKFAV
T1 sequence (C7FF04 1-392): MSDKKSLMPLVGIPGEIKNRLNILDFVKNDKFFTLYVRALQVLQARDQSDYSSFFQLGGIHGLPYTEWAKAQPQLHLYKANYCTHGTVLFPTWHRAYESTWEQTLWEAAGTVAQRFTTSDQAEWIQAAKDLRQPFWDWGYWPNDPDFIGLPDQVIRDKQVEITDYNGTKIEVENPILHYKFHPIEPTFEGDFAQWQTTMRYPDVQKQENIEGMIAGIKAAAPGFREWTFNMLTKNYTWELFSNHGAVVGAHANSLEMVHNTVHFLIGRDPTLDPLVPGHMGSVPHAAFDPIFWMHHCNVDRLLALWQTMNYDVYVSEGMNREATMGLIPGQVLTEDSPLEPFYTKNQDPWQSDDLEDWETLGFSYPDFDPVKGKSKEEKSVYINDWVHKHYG

inhibition at 50 µM [1] [%]	SMILES	further results
57.8	CCn1cc(O)c(=O)cc1/C=C/C(=O)c1ccc(F)cc1 [Compound 1h]	–
78.8	CCn1cc(O)c(=O)cc1/C=C/C(=O)c1ccc(O)c(O)c1 [Compound 1f]	–
50.3	CCCCn1cc(O)c(=O)cc1/C=C/C(=O)c1ccc(F)cc1 [Compound 1l]	–
63.3	CCn1cc(O)c(=O)cc1/C=C/C(=O)c1ccccc1 [Compound 1e]	–
89.5	O=C(/C=C/c1cc(=O)c(O)c[nH]1)c1ccc(F)cc1 [Compound 1d]	Reversibility of inhibition on diphenolase activity of tyrosinase (mushroom tyrosinase): reversible
64.6	CCCCn1cc(O)c(=O)cc1/C=C/C(=O)c1ccc(OC)cc1O [Compound 1k]	–
50.3	COc1ccc(C(=O)/C=C/c2cc(=O)c(O)co2)c(OC)c1 [Compound 1c]	–
–	O=C(/C=C/c1ccc(O)cc1)c1ccc(O)cc1O [2′,4′,4-trihydroxychalcone]	Inhibition rate [2]: 67%
85.3	Cn1cc(O)c(=O)cc1/C=C/C(=O)c1ccc(F)cc1 [Compound 1a]	Reversibility of inhibition on diphenolase activity of tyrosinase (mushroom tyrosinase): reversible
–	O=c1cc(CO)occ1O [Kojic acid]	pCu2+ [3]: 7.3
63.3	COc1ccc(C(=O)/C=C/c2cc(=O)c(O)c[nH]2)c(O)c1 [Compound 1o]	–
72.8	Cn1cc(O)c(=O)cc1/C=C/C(=O)c1ccccc1 [Compound 1i]	–
66.7	O=C(/C=C/c1cc(=O)c(O)c[nH]1)c1ccccc1 [Compound 1m]	–
87.6	COc1ccc(C(=O)/C=C/c2cc(=O)c(O)c[nH]2)cc1OC [Compound 1n]	log β1 (log stability constant of copper complex CuLH) [4, 6]: 20.9; log β2 (log stability constant of copper complex CuL2H2) [4, 6]: 40.4; pCu2+ ([4]; [Cu]total=10^-6 M, [L]total=10^-5 M, pH 7.4, calculated from pKa and log stability constants with HYSS): 9.9; pKa ([5]; DMSO:H2O molar ratio 0.2:1, read-out: pKa (1-NH)): 12; pKa ([5]; DMSO:H2O molar ratio 0.2:1, read-out: pKa (4-oxo functional group)): 3.3; pKa ([5]; DMSO:H2O molar ratio 0.2:1, read-out: pKa (5-hydroxyl group)): 8.8
71.4	CCn1cc(O)c(=O)cc1/C=C/C(=O)c1ccc(OC)cc1O [Compound 1g]	–
69.4	CCCCn1cc(O)c(=O)cc1/C=C/C(=O)c1ccc(O)c(O)c1 [Compound 1j]	–
66.7	COc1ccc(C(=O)/C=C/c2cc(=O)c(O)cn2C)c(O)c1 [Compound 1b]	–
